Laboratory results as given in patent US8188134B2, “Thiophene-carboxamides useful as inhibitors of protein kinases” (Vertex Pharmaceuticals Incorporated, priority 2006, dated 2012).

Biological target: T1, Plk1 (Homo sapiens, UniProt P53350)
T1 construct: in the presence of 15 nM Plk1 (A20-K338)
Test: Plk1 inhibition assay (radioactive-phosphate incorporation)
Assay type: biochemical
Settings: Ki(app)
Experimental: The compounds of the present invention are evaluated as inhibitors of human PLK kinase using the following assays.
Compounds were screened for their ability to inhibit Plk1 using a radioactive-phosphate incorporation assay. Assays were carried out in a mixture of 25 mM HEPES (pH 7.5), 10 mM MgCl2, and 1 mM DTT. Final substrate concentrations were 50 μM [γ-33P]ATP (136 mCi 33P ATP/mmol ATP, Amersham Pharmacia Biotech/Sigma Chemicals) and 10 μM peptide (SAM68 protein Δ332-443). Assays were carried out at 25° C. in the presence of 15 nM Plk1 (A20-K338). An assay stock buffer solution was prepared containing all of the reagents listed above, with the exception of ATP and the test compound of interest. 30 μL of the stock solution was placed in a 96 well plate followed by addition of 2 μL of DMSO stock containing serial dilutions of the test compound (typically starting from a final concentration of 10 μM with 2-fold serial dilutions) in duplicate (final DMSO concentration 5%). The plate was pre-incubated for 10 minutes at 25° C. and the reaction initiated by addition of 8 μL [γ-33P]ATP (final concentration 50 μM). […]
After removing mean background values for all of the data points, Ki(app) data were calculated from non-linear regression analysis of the initial rate data using the Prism software package (GraphPad Prism version 3.0cx for Macintosh, GraphPad Software, San Diego Calif., USA). […]

T1 sequence (P53350 20-338): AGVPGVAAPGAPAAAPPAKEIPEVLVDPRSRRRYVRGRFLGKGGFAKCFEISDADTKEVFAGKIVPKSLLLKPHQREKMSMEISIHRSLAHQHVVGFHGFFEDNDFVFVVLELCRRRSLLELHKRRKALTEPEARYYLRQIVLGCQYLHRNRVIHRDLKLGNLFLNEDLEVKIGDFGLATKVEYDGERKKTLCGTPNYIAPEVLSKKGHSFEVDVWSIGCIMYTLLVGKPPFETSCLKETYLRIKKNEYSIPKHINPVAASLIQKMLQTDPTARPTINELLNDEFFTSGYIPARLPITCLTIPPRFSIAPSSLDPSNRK

Ki (the text does not say which of the two Plk1 protocols was used) [nM] | Ki (lower bound in nM, upper bound in μM, protocol not specified) [nM] | Structure (SMILES)
10 to 100 | – | CC(Oc1cc(-n2ccnc2)sc1C(N)=O)c1ccccc1Cl (centres unmarked) [I-1, 3-[1-(2-Chloro-phenyl)-ethoxy]-5-imidazol-1-yl-thiophene-2-carboxylic acid amide]
– | 100 to 4000 | CC(Oc1cc(-c2cc(N)n[nH]2)sc1C(N)=O)c1ccccc1Cl (centres unmarked) [I-2, 5-(5-Amino-2H-pyrazol-3-yl)-3-[1-(2-chloro-phenyl)-ethoxy]-thiophene-2-carboxylic acid amide]
